From patent US10463670B2, “Use of non-peptide NK1 antagonists in a predetermined dose for the treatment of cancer” (SERVICIO ANDALUZ DE SALUD, priority 2013, dated 2019)

What was measured:
[1] = system: human fibrosarcoma; reference HT-1080; test: Fibrosarcoma HT-1080 tumours implanted s.c. in nude mice, Aprepitant alone; type: in vivo
Description: (§1) Immunocompromised female mice, 5-6 weeks of age were used, nu/nu Balb/c nude mice, provided by Harlan Iberica Barcelona (Spain). They were kept at 24° C. and in sterile conditions with food and water “ad libitum”. They were injected with 2×10^7 tumour cells, corresponding to cancer (human lung cancer, reference HCC-44 supplied by DSMZ) in 200 μl of PBS subcutaneous route. The tumour size was measured and the mice were evaluated for their state of health and weight daily. The mice were randomized in nine groups when the tumours reached a volume of 75 mm^3. One of the groups was treated with 200 μl of placebo (control group) and the eight remaining groups with doses of 10 (group 1), 20 (group 2), 30 (group 3), 40 (group 4), 50 (group 5), 60 (group 6), 70 (group 7) and 80 (group 8) mg per kilogram of weight and day of the NK1 receptor antagonist Aprepitant. 3 animals were treated per group, during 28 days. All the mice were sacrificed at the end of the experiment.
(§2) Immunocompromised female mice, 5-6 weeks of age were used, in the same conditions as explained in example 1. They were injected with 2×10^7 tumour cells, corresponding to a mesenchymal cell line tumour (human fibrosarcoma; reference HT-1080; supplied by DSMZ) in 200 μl of PBS by subcutaneous route. The tumour size was measured and the mice were evaluated for their state of health and weight daily. The mice were randomized in nine groups when the tumours reached a volume of 75 mm^3. One of the groups was treated with 200 μl of placebo (control group) and the eight remaining groups with doses of 10 (group 1), 20 (group 2), 30 (group 3), 40 (group 4), 50 (group 5), 60 (group 6), 70 (group 7) and 80 (group 8) mg per kilogram of weight and day of the NK1 receptor antagonist Aprepitant. 3 animals were treated per group, during 28 days. All the mice were sacrificed at the end of the experiment.

[2] = system: human neuroblastoma; reference KELLY; test: Neuroblastoma KELLY tumours implanted s.c. in nude mice, Aprepitant alone; type: in vivo
Description: as §1
as §2, with “an embryonic” for “a mesenchymal cell line”, “neuroblastoma;” for “fibrosarcoma;”, “KELLY;” for “HT-1080;”

[3] = system: Human adenocolon cancer SW-403; test: MTS cell proliferation, nanomolar antagonist, SW-403; type: cell-based; settings: Aprepitant 1, 5 and 7 nM, vs cells grown in the absence of antagonist, time dependant
Description: (§3) Cell cultures of various commercial tumour cell lines stated in table 13 were used. [table] […] The number of cells was quantified using a Coulter counter. […] The culture plates were grown in the presence of increasing concentrations of non-peptide NK1 receptor antagonists. To obtain the staining in the proliferation assays, 20 μl of MTS were added to each one of the wells of the cell culture plates 90 minutes before reading the samples in a multiscan spectrophotometer (TECAN Spectra classic, Barcelona, Spain) at 492 nm (assay wavelength) and 690 nm (reference wavelength). The different doses were tested in duplicate and each experiment was performed in triplicate. The antagonist Aprepitant was used at the following concentrations: 1 nanomolar -nM-, 5 nanomolar -nM- and 7 nanomolar -nM-. […] As proliferation control, the cells were grown in the absence of said antagonist. This is expressed in FIGS. 1 to 10.

[4] = system: Human fibrosarcoma HT-1080; test: MTS cell proliferation, nanomolar antagonist, HT-1080; type: cell-based; settings: Aprepitant 1, 5 and 7 nM, vs cells grown in the absence of antagonist, time dependant
Description: as §3

[5] = system: Human glioma GAMG; test: MTS cell proliferation, nanomolar antagonist, GAMG; type: cell-based; settings: Aprepitant 1, 5 and 7 nM, vs cells grown in the absence of antagonist, time dependant
Description: as §3

[6] = system: Human melanoma MEL HO; test: MTS cell proliferation, nanomolar antagonist, MEL HO; type: cell-based; settings: Aprepitant 1, 5 and 7 nM, vs cells grown in the absence of antagonist, time dependant
Description: as §3

[7] = Aprepitant 10 mg/kg/day, 7 days
[8] = Aprepitant 10 mg/kg/day, 14 days
[9] = Aprepitant 10 mg/kg/day, 21 days
[10] = Aprepitant 10 mg/kg/day, 28 days
[11] = Aprepitant 20 mg/kg/day, 7 days
[12] = Aprepitant 20 mg/kg/day, 14 days
[13] = Aprepitant 20 mg/kg/day, 21 days
[14] = Aprepitant 20 mg/kg/day, 28 days
[15] = Aprepitant 30 mg/kg/day, 7 days
[16] = Aprepitant 30 mg/kg/day, 14 days
[17] = Aprepitant 30 mg/kg/day, 21 days
[18] = Aprepitant 30 mg/kg/day, 28 days
[19] = Aprepitant 40 mg/kg/day, 7 days
[20] = Aprepitant 40 mg/kg/day, 14 days
[21] = Aprepitant 40 mg/kg/day, 21 days
[22] = Aprepitant 40 mg/kg/day, 28 days
[23] = Aprepitant 50 mg/kg/day, 7 days
[24] = Aprepitant 50 mg/kg/day, 14 days
[25] = Aprepitant 50 mg/kg/day, 21 days
[26] = Aprepitant 50 mg/kg/day, 28 days
[27] = Aprepitant 60 mg/kg/day, 7 days
[28] = Aprepitant 60 mg/kg/day, 14 days
[29] = Aprepitant 60 mg/kg/day, 21 days
[30] = Aprepitant 60 mg/kg/day, 28 days
[31] = Aprepitant 70 mg/kg/day, 7 days
[32] = Aprepitant 70 mg/kg/day, 14 days
[33] = Aprepitant 70 mg/kg/day, 21 days
[34] = Aprepitant 70 mg/kg/day, 28 days
[35] = Aprepitant 80 mg/kg/day, 7 days
[36] = Aprepitant 80 mg/kg/day, 14 days
[37] = Aprepitant 80 mg/kg/day, 21 days
[38] = Aprepitant 80 mg/kg/day, 28 days

C[C@@H](O[C@H]1OCCN(Cc2n[nH]c(=O)[nH]2)[C@H]1c1ccc(F)cc1)c1cc(C(F)(F)F)cc(C(F)(F)F)c1 [Aprepitant]
Tumour size (mean volume of the tumour) [1, 7]: 220 ± 4 cubic millimeters
Tumour size (mean volume of the tumour) [1, 8]: 205 ± 4 cubic millimeters
Tumour size (mean volume of the tumour) [1, 9]: 195 ± 6 cubic millimeters
Tumour size (mean volume of the tumour) [1, 10]: 170 ± 6 cubic millimeters
Tumour size (mean volume of the tumour) [1, 11]: 195 ± 5 cubic millimeters
Tumour size (mean volume of the tumour) [1, 12]: 180 ± 5 cubic millimeters
Tumour size (mean volume of the tumour) [1, 13]: 165 ± 7 cubic millimeters
Tumour size (mean volume of the tumour) [1, 14]: 150 ± 7 cubic millimeters
Tumour size (mean volume of the tumour) [1, 15]: 175 ± 5 cubic millimeters
Tumour size (mean volume of the tumour) [1, 16]: 155 ± 6 cubic millimeters
Tumour size (mean volume of the tumour) [1, 17]: 135 ± 5 cubic millimeters
Tumour size (mean volume of the tumour) [1, 18]: 140 ± 4 cubic millimeters
Tumour size (mean volume of the tumour) [1, 19]: 160 ± 4 cubic millimeters
Tumour size (mean volume of the tumour) [1, 20]: 150 ± 3 cubic millimeters
Tumour size (mean volume of the tumour) [1, 21]: 120 ± 5 cubic millimeters
Tumour size (mean volume of the tumour) [1, 22]: 110 ± 6 cubic millimeters
Tumour size (mean volume of the tumour) [1, 23]: 145 ± 5 cubic millimeters
Tumour size (mean volume of the tumour) [1, 24]: 135 ± 7 cubic millimeters
Tumour size (mean volume of the tumour) [1, 25]: 100 ± 3 cubic millimeters
Tumour size (mean volume of the tumour) [1, 26]: 100 ± 7 cubic millimeters
Tumour size (mean volume of the tumour) [1, 27]: 135 ± 7 cubic millimeters
Tumour size (mean volume of the tumour) [1, 28]: 120 ± 6 cubic millimeters
Tumour size (mean volume of the tumour) [1, 29]: 90 ± 8 cubic millimeters
Tumour size (mean volume of the tumour) [1, 30]: 85 ± 4 cubic millimeters
Tumour size (mean volume of the tumour) [1, 31]: 120 ± 8 cubic millimeters
Tumour size (mean volume of the tumour) [1, 32]: 100 ± 4 cubic millimeters
Tumour size (mean volume of the tumour) [1, 33]: 85 ± 6 cubic millimeters
Tumour size (mean volume of the tumour) [1, 34]: 80 ± 7 cubic millimeters
Tumour size (mean volume of the tumour) [1, 35]: 100 ± 4 cubic millimeters
Tumour size (mean volume of the tumour) [1, 36]: 90 ± 8 cubic millimeters
Tumour size (mean volume of the tumour) [1, 37]: 70 ± 8 cubic millimeters
Tumour size (mean volume of the tumour) [1, 38]: 65 ± 9 cubic millimeters
Tumour size (mean volume of the tumour) [2, 7]: 180 ± 4 cubic millimeters
Tumour size (mean volume of the tumour) [2, 8]: 165 ± 6 cubic millimeters
Tumour size (mean volume of the tumour) [2, 9]: 140 ± 5 cubic millimeters
Tumour size (mean volume of the tumour) [2, 10]: 120 ± 2 cubic millimeters
Tumour size (mean volume of the tumour) [2, 11]: 175 ± 7 cubic millimeters
Tumour size (mean volume of the tumour) [2, 12]: 155 ± 7 cubic millimeters
Tumour size (mean volume of the tumour) [2, 13]: 130 ± 4 cubic millimeters
Tumour size (mean volume of the tumour) [2, 14]: 105 ± 4 cubic millimeters
Tumour size (mean volume of the tumour) [2, 15]: 160 ± 3 cubic millimeters
Tumour size (mean volume of the tumour) [2, 16]: 145 ± 3 cubic millimeters
Tumour size (mean volume of the tumour) [2, 17]: 115 ± 3 cubic millimeters
Tumour size (mean volume of the tumour) [2, 18]: 90 ± 6 cubic millimeters
Tumour size (mean volume of the tumour) [2, 19]: 155 ± 6 cubic millimeters
Tumour size (mean volume of the tumour) [2, 20]: 130 ± 6 cubic millimeters
Tumour size (mean volume of the tumour) [2, 21]: 105 ± 7 cubic millimeters
Tumour size (mean volume of the tumour) [2, 22]: 75 ± 8 cubic millimeters
Tumour size (mean volume of the tumour) [2, 23]: 140 ± 4 cubic millimeters
Tumour size (mean volume of the tumour) [2, 24]: 110 ± 5 cubic millimeters
Tumour size (mean volume of the tumour) [2, 25]: 95 ± 7 cubic millimeters
Tumour size (mean volume of the tumour) [2, 26]: 60 ± 5 cubic millimeters
Tumour size (mean volume of the tumour) [2, 27]: 130 ± 5 cubic millimeters
Tumour size (mean volume of the tumour) [2, 28]: 115 ± 7 cubic millimeters
Tumour size (mean volume of the tumour) [2, 29]: 85 ± 3 cubic millimeters
Tumour size (mean volume of the tumour) [2, 30]: 55 ± 9 cubic millimeters
Tumour size (mean volume of the tumour) [2, 31]: 120 ± 6 cubic millimeters
Tumour size (mean volume of the tumour) [2, 32]: 95 ± 8 cubic millimeters
Tumour size (mean volume of the tumour) [2, 33]: 65 ± 6 cubic millimeters
Tumour size (mean volume of the tumour) [2, 34]: 40 ± 5 cubic millimeters
Tumour size (mean volume of the tumour) [2, 35]: 105 ± 7 cubic millimeters
Tumour size (mean volume of the tumour) [2, 36]: 85 ± 6 cubic millimeters
Tumour size (mean volume of the tumour) [2, 37]: 45 ± 5 cubic millimeters
Tumour size (mean volume of the tumour) [2, 38]: 25 ± 6 cubic millimeters
Proliferation of tumour cells (MTS) [3]: increase was observed of proliferation
Proliferation of tumour cells (MTS) [4]: increase was observed of proliferation
Proliferation of tumour cells (MTS) [5]: increase was observed of proliferation
Proliferation of tumour cells (MTS) [6]: increase was observed of proliferation
